Laboratory results taken from patent US20250019379A1, “NEW CRYSTAL FORM OF COMPOUND, AND PREPARATION METHOD THEREFOR AND USE THEREOF” (E-nitiate Biopharmaceuticals (Hangzhou) Co., Ltd, priority 2021, published 2025).
“And” between values parts separate entries of the source, which are not always exact repeats. Equal values may be shown once. Marks after values point to notes of the source that are not given here.

Tests used:
psoriasis animal model = assay: Psoriasis animal model (imiquimod cream induced); format: in vivo, C57/BL 6J mice; details: for Inhibition rate of skin thickening: 7th day of treatment
Excerpt: C57/BL 6J mice, 75, female, 7-8 weeks old, weight 18 g-20 g. The animals were from Zhejiang Weitong Lihua Experimental Animal Technology Co., Ltd. (SCXK (Zhejiang) 2019-0001), experimental animal production certificate number 20210107Abzz0619000247; experimental animal use license number: SYXK (Shanghai) 2020-0001 (Via Biotechnology (Shanghai Co., Ltd).
Modeling and administration method: Use depilatory cream to remove hair from an area of about 2 cm×3 cm on the back of each animal. Control the application time of depilatory cream within 2 minutes. Wash the depilated area with warm water, wash off the depilatory agent, and use immediately. Dry the animal's hair with a hair dryer, and place the animal on a constant-temperature electric blanket at 37° C. for 1 h-2 h. After the animal moves freely, it is placed in a cage for normal rearing and recovery for 1 day (if any animal has red, swollen and damaged skin after hair removal, remove it). On the second day, 54 animals with normal skin were selected and randomly grouped according to body weight, with 9 animals in each group, a total of 6 groups. Each animal in the G2-G6 group was evenly applied with 60 mg (60 μL) of 5 wt % imiquimod cream (Aldara) on the back every day for seven consecutive days.
Skin thickness (double-layer): Use a vernier caliper to measure the double-layer thickness of the back skin before drug administration and modeling, and on days 1, 3, 5, and 7 after drug administration.
PASI score: The condition score refers to the clinical PASI scoring standard, and scores three indicators: erythema, scale, and thickness. The total score is 12 points. The scoring standards are as follows:
Erythema: 0 points, none; 1 points, slight: light red; 2 points, moderate: red; 3 points, significant: dark red; 4 points, very obvious: extremely deep red.
Scaling: 0 points, none; 1 point, slight: there are scales on part of the epidermis, mainly fine scales; 2 points, moderate: most of the skin surface is completely or incompletely covered with scales, in a flaky form; 3 points, Significant: almost all skin is covered with scales, and the scales are thick and layered; 4 points, very obvious: all the skin is covered with scales, and the scales are thick and layered.
Plaque thickening degree: 0 points, none: flush with normal skin; 1 points, slight: slightly higher than the skin surface: 2 points, moderate: moderately raised, with round or sloped plaque edges; 3 points, obvious Score: The plaque is hypertrophic and the bulge is obvious; 4 points, very significant: it is highly thickened and the bulge is very obvious.
Skin proliferation inhibition rate (%)=1−[(skin thickness of the treatment group on the 7th day−skin thickness of the blank control group on the 7th day)/skin thickness of the negative control group on the 7th day−skin thickness of the blank control group on the 7th day)]%.
All data are expressed as Mean t SEM. The statistical analysis software SPSS23.0 was used to conduct normal distribution and homogeneity of variance tests on the data. Based on the results, the single-factor analysis of variance method was selected and the homogeneity of variance test was selected based on the results. *P<0.05 will be considered a statistically significant difference.

[1] = Suspension competition experiment; format: physicochemical; details: compared with crystalline form O and crystalline form P; room temperature and 60° C.
Method: Place them at room temperature and 60° C. with magnetic stirring for about 1 hour respectively. […] Solids are used for XRPD testing.

[2] = 0.5 mg/kg oral twice a day, Day 0
[3] = 0.5 mg/kg oral twice a day, Day 1
[4] = 0.5 mg/kg oral twice a day, Day 3
[5] = 0.5 mg/kg oral twice a day, Day 5
[6] = 0.5 mg/kg oral twice a day, Day 7
[7] = 1.5 mg/kg oral twice a day, Day 0
[8] = 1.5 mg/kg oral twice a day, Day 1
[9] = 1.5 mg/kg oral twice a day, Day 3
[10] = 1.5 mg/kg oral twice a day, Day 5
[11] = 1.5 mg/kg oral twice a day, Day 7
[12] = 1.5 mg/kg oral twice a day, Day 7, listed as crystalline form A
[13] = 5 mg/kg oral twice a day, Day 0
[14] = 5 mg/kg oral twice a day, Day 1
[15] = 5 mg/kg oral twice a day, Day 3
[16] = 5 mg/kg oral twice a day, Day 5
[17] = 5 mg/kg oral twice a day, Day 7
[18] = 5 mg/kg oral twice a day, Day 7, listed as crystalline form A

C[C@@H](O)c1nc2cnc3[nH]ccc3c2n1N1CCC(CC#N)CC1 [Crystalline form A, (R)-2-(1-(2-(1-hydroxyethyl)imidazo[4,5-d]pyrrolo[2,3-b]pyridine-1(6H)-yl)piperidin-4-yl)acetonitrile]
Inhibition rate of skin thickening (psoriasis animal model; 0.5 mg/kg oral twice a day): 34.6% | Average skin thickness (double layer) (psoriasis animal model; [2]): 0.50 ± 0.01 mm | PASI score (psoriasis animal model; [2]): 0.0 points | Average skin thickness (double layer) (psoriasis animal model; [3]): 0.60 ± 0.01 mm | PASI score (psoriasis animal model; [3]): 0.0 points | Average skin thickness (double layer) (psoriasis animal model; [4]): 1.57 ± 0.11 mm | PASI score (psoriasis animal model; [4]): 6.6 ± 0.69 points | Average skin thickness (double layer) (psoriasis animal model; [5]): 1.27 ± 0.1*** mm | PASI score (psoriasis animal model; [5]): 5.9 ± 0.79** points | Average skin thickness (double layer) (psoriasis animal model; [6]): 1.32 ± 0.09 mm and 1.32 mm | PASI score (psoriasis animal model; [6]): 6.1 ± 0.56*** points | PASI score (psoriasis animal model; 0.5 mg/kg oral twice a day, Day 7, listed as crystalline form A): 6.1 points | Inhibition rate of skin thickening (psoriasis animal model; 1.5 mg/kg oral twice a day): 56.4% | Inhibition rate of skin thickening (psoriasis animal model; 1.5 mg/kg oral twice a day, listed as crystalline form A): 56.4% | Average skin thickness (double layer) (psoriasis animal model; [7]): 0.50 ± 0.01 mm | PASI score (psoriasis animal model; [7]): 0.0 points | Average skin thickness (double layer) (psoriasis animal model; [8]): 0.61 ± 0.02 mm | PASI score (psoriasis animal model; [8]): 0.0 points | Average skin thickness (double layer) (psoriasis animal model; [9]): 1.76 ± 0.15 mm | PASI score (psoriasis animal model; [9]): 6.1 ± 0.56 points | Average skin thickness (double layer) (psoriasis animal model; [10]): 1.53 ± 0.08** mm | PASI score (psoriasis animal model; [10]): 7.0 ± 0.53 points | Average skin thickness (double layer) (psoriasis animal model; [11]): 1.15 ± 0.04** mm and 1.15 mm | PASI score (psoriasis animal model; [11]): 4.9 ± 0.39*** points | Average skin thickness (double layer) (psoriasis animal model; [12]): 1.15 mm | PASI score (psoriasis animal model; [12]): 4.9 points | Inhibition rate of skin thickening (psoriasis animal model; 5 mg/kg oral twice a day): 71.8% | Inhibition rate of skin thickening (psoriasis animal model; 5 mg/kg oral twice a day, listed as crystalline form A): 71.8% | Average skin thickness (double layer) (psoriasis animal model; [13]): 0.50 ± 0.01 mm | PASI score (psoriasis animal model; [13]): 0.0 points | Average skin thickness (double layer) (psoriasis animal model; [14]): 0.64 ± 0.01 mm | PASI score (psoriasis animal model; [14]): 0.0 points | Average skin thickness (double layer) (psoriasis animal model; [15]): 1.35 ± 0.10* mm | PASI score (psoriasis animal model; [15]): 4.9 ± 0.48 points | Average skin thickness (double layer) (psoriasis animal model; [16]): 1.24 ± 0.11*** mm | PASI score (psoriasis animal model; [16]): 4.7 ± 0.58*** points | Average skin thickness (double layer) (psoriasis animal model; [17]): 1.03 ± 0.03*** mm and 1.03 mm | PASI score (psoriasis animal model; [17]): 3.6 ± 0.44*** points | Average skin thickness (double layer) (psoriasis animal model; [18]): 1.03 mm | PASI score (psoriasis animal model; [18]): 3.6 points | stability in suspension competition [1]: more stable
